Experimental data taken from US5880145A, “Class of benzoporphyrin derivative photoactive compounds” (The University of British Columbia, priority 1997, dated 1999).
Read-outs that look alike come from different tables or passages of the source.

What was measured:
[1] = system: Murine leukemia cells (L1210); experiment: Photosensitization of cells in vitro (broad spectrum light 9 j/cm^2; MTT cell viability); format: cell-based; conditions: for IC50: Mus musculus, L1210, light or radiation study, 20 h, 1 hour incubation, light 9 j/cm^2, viability 20 hours later, read-out: LD50 (dose causing 50% cell kill)
Method: Murine leukemia cells (L1210) were incubated in suitable buffer with and without serum in various amounts of the drug B3 for 1 hour. After removal of the drug, the cells were exposed to broad spectrum light at 9 j/cm^2. Cell viability was determined 20 hours later by the MTT colorimetric assay. Results are presented in FIGS. 2A and 2B as % cell kill for cells exposed to light only.

L1210 cells [2] = experiment: Uptake of B3 by cells in vitro; format: cell-based, Murine; conditions: 3 μg/ml, 10% serum
Method: Uptake of B3 by cells in vitro: L1210 cells (5×10^6 /vial) were incubated in the presence of 10% serum with B3 at 3 μg/ml for times up to 100 minutes. At various times during incubation, duplicate vials were pulled out and the cells, following washing, were lysed and the amount of B3 in the extract determined by fluorescence in the presence of 1% Triton X-100.

L1210 cells [3] = experiment: Release/retention of B3 by cells in vitro; format: cell-based, Murine; conditions: after 1 hour incubation at 3 μg/ml; drug-free medium with 10% serum
Method: Release/retention of B3 by cells in vitro: L1210 cells were incubated for 1 hour with B3 at 3 μg/ml in the presence of 10% serum, then washed and placed in drug-free medium containing 10% serum. At various times duplicate aliquots were evaluated for cell content of B3 as described above.

[4] = Tissue distribution and clearance in vivo; conditions: mice, intravenous 4 mg/kg
Method: Mice (normal, healthy and M1-tumor-bearing) were injected intravenously at 4 mg/kg with B3 formulated in aqueous solution containing DMSO. At various times post B3 administration, the animals were sacrificed and B3 content in various tissues was determined in tissue extracts by fluorescence as described above.

[5] = system: M1 (rhabdomyosarcoma) tumor-bearing mice; experiment: Selectivity in vivo: biodistribution (tumor:tissue ratios)
Method: Mice (normal, healthy and M1-tumor-bearing) were injected intravenously at 4 mg/kg with B3 formulated in aqueous solution containing DMSO. At various times post B3 administration, the animals were sacrificed and B3 content in various tissues was determined in tissue extracts by fluorescence as described above. Biodistribution data of B3 (tumor:tissue ratios) obtained in M1 (rhabdomyosarcoma) tumor-bearing mice were also evaluated at various times. Within the first hour post intravenous administration of 4 mg/kg B3, tumor:tissue ratios for the muscle and skin were 1.5-2.0 and 3.1-3.9, respectively. Lymph nodes gave ratios of 0.7. […] Since this preferential accumulation was observed shortly after B3 administration, this photosensitizer can be activated with light shortly after its injection, which is convenient in clinical use.

[6] = within first hour post intravenous 4 mg/kg

SMILES: C=Cc1c(C)c2cc3nc(cc4[nH]c(cc5nc(cc1[nH]2)[C@@]1(C)C5=CC=C(C(=O)O)[C@H]1C(=O)OC)c(C)c4CCC(=O)OC)C(CCC(=O)OC)=C3C (relative stereo) [Example B3]
- IC50 ([1]; in the absence of 10% serum): 0.007 µg/mL
- IC50 ([1]; in the presence of 10% serum): 0.035 µg/mL
- photosensitization of cells (in words) ([1]; with and without serum): very potent photosensitizer of cells and maintains this property in the presence of serum
- time to reach maximum concentrations in cells (uptake) (L1210 cells [2]): ≤ 20 min
- cellular pharmacokinetics in vitro (in words) (L1210 cells [2]; uptake and release, L1210 cells): very rapid pharmacokinetics in vitro
- time after which release from cells is rapid and almost complete (L1210 cells [3]): ~30 min
- pharmacokinetics in vivo (in words) [4]: very rapid pharmacokinetics in vivo
- time after which drug was cleared from tissues tested ([4]; aqueous solution containing DMSO): about 5 minutes
- accumulation in tumor and other rapidly proliferating tissues versus normal tissues (in words) ([5]; shortly after intravenous 4 mg/kg): preferential accumulation of B3 in tumor and other rapidly proliferating tissues (lymph nodes) in contrast to normal, nonproliferating tissues
- tumor:tissue ratio, lymph nodes [5, 6]: 0.7
- tumor:tissue ratio, muscle [5, 6]: 1.5-2.0
- tumor:tissue ratio, skin [5, 6]: 3.1-3.9
